Results as given in patent US10172879B2, “Nanocomplexes for co-delivering a drug and siRNA and uses thereof” (D.R.NANO CO., LTD, priority 2015, dated 2019).
d = 2'-deoxy (DNA)

Assay: Serum stability assay (50% serum, 37° C., gel electrophoresis)
Format: in vitro ADME, bovine
Conditions: 50% serum media at 37° C., 0-24 h; HMplex N/P=4
Experimental: In vitro cytotoxicity studies of HMplexes were performed against normal cells (MRC-5 and NIH-3T3) and cancer cells (MDA-MB-231) using the colorimetric MTT assay. Cells were treated with HMplexes at various concentrations for 4 h and then incubated in a serum-free medium for another 44 h after washing twice with cold PBS (pH 7.4). After washing with PBS, the cells were treated with MTT reagents and the absorbance at 540 nm was measured with a microplate reader (Spectra Max 340, Molecular Devices, Sunnyvale, Calif., USA). The complex stability of HMplexes was evaluated by a heparin polyanion competition assay and a serum stability assay. For the heparin polyanion competition assay, HMplexes containing 1 μg siRNA were incubated with varying amounts of heparin (0-200 μg) for 30 min at room temperature and then subjected to 2% agarose gel electrophoresis. The decomplexed siRNA was detected with SYBR Gold staining. For serum stability studies, HMplexes or naked siRNA were incubated in 50% FBS/PBS (pH 7.4) at 37° C. for predetermined time periods (0-24 h). Aliquots from each sample were analyzed by 2% agarose gel electrophoresis and visualized with SYBR Gold.

free siRNA: Custom Bcl-2 siRNA (sense Seq ID No. 1-dTdT; antisense Seq ID No. 2-dTdT), uncomplexed (sense GUACAUCCAUUAUAAGCUG; antisense CAGCUUAUAAUGGAUGUAC; RNA, 3' dTdT, backbone not given here)
degradation of siRNA in serum: completely disappeared at 24 h
